Test results: patent US20240383852A1, “ANTI-VIRAL COMPOUNDS” (INFEX Therapeutics Limited, priority 2021, published 2024)
Structures can show the parent of a compound that is named as a salt. Where two headings read alike, the source gives them in different places.

What was measured:
SARS-CoV-2 PLpro = molecular target: T1, SARS-CoV-2 PLpro (Severe acute respiratory syndrome coronavirus 2, UniProt P0DTD1); assay: biochemical
T1 construct: containing 60 nM papain-like protease

[1] = tested on: human Hep G2 cells (ATCC HB-8065); assay: Cytotoxicity in Hep G2 cells (CellTiter-Glo); type: cell-based
[2] = 60 nM papain-like protease, 50 μM Z-RLRGG-AMC, pH 7.5, 37° C., read-out: SARS-CoV-2 PLpro IC50
[3] = Hep G2 cells, 100 μM test article, 24-hour exposure

| Structure (SMILES) | IC50 (SARS-CoV-2 PLpro; [2]) | % Cell Viability [1, 3] | IC50 (SARS-CoV-2 PLpro) | % Cell Viability ([1]; human, 24 h, 100 μM) |
| --- | --- | --- | --- | --- |
| COc1cc(-c2cnn(C)c2)cc([C@@H](C)NC(=O)c2cc(N3CC4CNCC4C3)ccc2C)c1 (stereo partly drawn) [Example 262, 5-(2,3,3a,4,6,6a-Hexahydro-1H-pyrrolo[3,4-c]pyrrol-5-yl)-N-[(1R)-1-[3-methoxy-5-(1-methylpyrazol-4-yl)phenyl]ethyl]-2-methyl-benzamide] | < 2000 nM | 42.4% |  |  |
| COc1cc(-c2cnn(C)c2)cc([C@@H](C)NC(=O)c2cc(N3CCCNCC3)ccc2C)c1 [Example 263, 5-(1,4-Diazepan-1-yl)-N-[(1R)-1-[3-methoxy-5-(1-methylpyrazol-4-yl)phenyl]ethyl]-2-methyl-benzamide] | < 2000 nM | 56.4% |  |  |
| COc1cc(-c2cnn(C)c2)cc([C@@H](C)NC(=O)c2cc(N3CCNC4(CC4)C3)ccc2C)c1 [Example 264, 5-(4,7-Diazaspiro[2.5]octan-7-yl)-N-[(1R)-1-[3-methoxy-5-(1-methylpyrazol-4-yl)phenyl]ethyl]-2-methyl-benzamide] | < 2000 nM | 68.5% |  |  |
| COc1cc(-c2cn(C)nc2C)cc([C@@H](C)NC(=O)c2cc(N3CCCNCC3)ccc2C)c1 [Example 265, 5-(1,4-Diazepan-1-yl)-N-[(1R)-1-[3-(1,3-dimethylpyrazol-4-yl)-5-methoxy-phenyl]ethyl]-2-methyl-benzamide] | < 2000 nM | 40.7% |  |  |
| COc1cc(-c2cn(C)nc2C)cc([C@@H](C)NC(=O)c2cc(N3CCNC4(CC4)C3)ccc2C)c1 [Example 267, 5-(4,7-Diazaspiro[2.5]octan-7-yl)-N-[(1R)-1-[3-(1,3-dimethylpyrazol-4-yl)-5-methoxy-phenyl]ethyl]-2-methyl-benzamide] | < 2000 nM | 81.0% |  |  |
| COc1cc(-c2cn(C)nc2C)cc([C@@H](C)NC(=O)c2cc(N3CC4CNCC4C3)ccc2C)c1 (stereo partly drawn) [Example 268, 5-(2,3,3a,4,6,6a-Hexahydro-1H-pyrrolo[3,4-c]pyrrol-5-yl)-N-[(1R)-1-[3-(1,3-dimethylpyrazol-4-yl)-5-methoxy-phenyl]ethyl]-2-methyl-benzamide] | < 2000 nM | 75.0% |  |  |
| COc1cc(-c2cn(C)nc2C)cc([C@@H](C)NC(=O)c2cc(N3C[C@H]4CC[C@@H](C3)N4)ccc2C)c1 [Example 270, 5-[(1S,5R)-3,8-Diazabicyclo[3.2.1]octan-3-yl]-N-[(1R)-1-[3-(1,3-dimethylpyrazol-4-yl)-5-methoxy-phenyl]ethyl]-2-methyl-benzamide] |  |  | < 2000 nM | 22.6% |
| COc1ccc([C@@H](C)NC(=O)c2cc(N3CC4(CNC4)C3)ccc2C)cc1-c1cnn(C)c1 [Example 271, 5-(2,6-Diazaspiro[3.3]heptan-2-yl)-N-[(1R)-1-[4-methoxy-3-(1-methylpyrazol-4-yl)phenyl]ethyl]-2-methyl-benzamide] | < 5000 nM | 95.2% |  |  |
| COc1ccc([C@@H](C)NC(=O)c2cc(N3CCN(CCO)CC3)ccc2C)cc1-c1cnn(C)c1 [Example 273, 5-[4-(2-Hydroxyethyl)piperazin-1-yl]-N-[(1R)-1-[4-methoxy-3-(1-methylpyrazol-4-yl)phenyl]ethyl]-2-methyl-benzamide] | < 5000 nM | 92.6% |  |  |
| COc1cc(-c2cnn(C)c2)cc([C@@H](C)NC(=O)c2cc(N3C[C@H]4CC[C@@H](C3)N4CC3CC3)ccc2C)c1 [Example 274, 5-[(1R,5S)-8-(Cyclopropylmethyl)-3,8-diazabicyclo[3.2.1]octan-3-yl]-N-[(1R)-1-[3-methoxy-5-(1-methylpyrazol-4-yl)phenyl]ethyl]-2-methyl-benzamide] |  |  | < 2000 nM | 38.7% |
| Cc1ccc(N2CCN(C)CC2)cc1C(=O)N[C@H](C)c1cc(O)cc(-c2cnn(C)c2)c1 [Example 275, N-[(1R)-1-[3-Hydroxy-5-(1-methylpyrazol-4-yl)phenyl]ethyl]-2-methyl-5-(4-methylpiperazin-1-yl)benzamide] | < 2000 nM | 80.7% |  |  |
| Cc1ccc(N2CCN(C)CC2)cc1C(=O)N[C@H](C)c1ccc(O)c(-c2cnn(C)c2)c1 [Example 276, N-[(1R)-1-[4-Hydroxy-3-(1-methylpyrazol-4-yl)phenyl]ethyl]-2-methyl-5-(4-methylpiperazin-1-yl)benzamide] | < 2000 nM | 81.6% |  |  |
| Cc1ccc(N2CCN(C)CC2)cc1C(=O)N[C@H](C)c1ccc(OCCO)c(-c2cnn(C)c2)c1 [Example 282, N-[(1R)-1-[4-(2-Hydroxyethoxy)-3-(1-methylpyrazol-4-yl)phenyl]ethyl]-2-methyl-5-(4-methylpiperazin-1-yl)benzamide] | < 2000 nM | 100.0% |  |  |
| COc1ccc([C@@H](C)NC(=O)c2cc(N3CCN(C)CC3)ccc2C)cc1-c1cnn(CCO)c1 [Example 284, N-[(1R)-1-[3-[1-(2-Hydroxyethyl)pyrazol-4-yl]-4-methoxy-phenyl]ethyl]-2-methyl-5-(4-methylpiperazin-1-yl)benzamide] | < 2000 nM | 101.3% |  |  |
| COc1ccc([C@@H](C)NC(=O)c2cc(N3CCN(C)CC3)ccc2C)cc1-c1csc(C(=O)N(C)C)c1 [Example 285, 4-[2-Methoxy-5-[(1R)-1-[[2-methyl-5-(4-methylpiperazin-1-yl)benzoyl]amino]ethyl]phenyl]-N,N-dimethyl-thiophene-2-carboxamide] | < 2000 nM | 72.2% |  |  |
| COc1ccc([C@@H](C)NC(=O)c2cc(N3C[C@H]4C[C@@H]3CN4C)ccc2C)cc1-c1csc(C(=O)N(C)C)c1 [Example 286, 4-[2-Methoxy-5-[(1R)-1-[[2-methyl-5-[(1R,4R)-5-methyl-2,5-diazabicyclo[2.2.1]heptan-2-yl]benzoyl]amino]ethyl]phenyl]-N,N-dimethyl-thiophene-2-carboxamide] | < 2000 nM | 50.3% |  |  |
| COc1ccc([C@@H](C)NC(=O)c2cc(N3C[C@H]4C[C@@H]3CN4C)ccc2C)cc1-c1csc(C(=O)NC2CC2)c1 [Example 287, N-Cyclopropyl-4-[2-methoxy-5-[(1R)-1-[[2-methyl-5-[(1R,4R)-5-methyl-2,5-diazabicyclo[2.2.1]heptan-2-yl]benzoyl]amino]ethyl]phenyl]thiophene-2-carboxamide] | < 2000 nM | 43.4% |  |  |
| CNC(=O)c1cc(-c2cc([C@@H](C)NC(=O)c3cc(N4CCN(C)CC4)ccc3C)ccc2OC)cs1 [Example 288, 4-[2-Methoxy-5-[(1R)-1-[[2-methyl-5-(4-methylpiperazin-1-yl)benzoyl]amino]ethyl]phenyl]-N-methyl-thiophene-2-carboxamide] | < 2000 nM | 47.2% |  |  |
| COc1cc(-c2cc(C(=O)N(C)C)n(C)c2)cc([C@@H](C)NC(=O)c2cc(N3C[C@H]4C[C@@H]3CN4C)ccc2C)c1 [Example 290, 4-[3-Methoxy-5-[(1R)-1-[[2-methyl-5-[(1R,4R)-5-methyl-2,5-diazabicyclo[2.2.1]heptan-2-yl]benzoyl]amino]ethyl]phenyl]-N,N,1-trimethyl-pyrrole-2-carboxamide] | < 2000 nM | 72.9% |  |  |
| COc1ccc([C@@H](C)NC(=O)c2cc(N3CCN(C)CC3)ccc2C)cc1O [Example 291, N-[(1R)-1-(3-Hydroxy-4-methoxy-phenyl)ethyl]-2-methyl-5-(4-methylpiperazin-1-yl)benzamide] | < 5000 nM | 97.4% |  |  |
| COc1ccc([C@@H](C)NC(=O)c2cc(N3CCN(C)CC3)ccc2C)cc1OCCN1CCOCC1 [Example 292, N-[(1R)-1-[4-Methoxy-3-(2-morpholinoethoxy)phenyl]ethyl]-2-methyl-5-(4-methylpiperazin-1-yl)benzamide] | < 2000 nM | 88.9% |  |  |
| COc1ccc([C@@H](C)NC(=O)c2cc(N3CCN(C)CC3)ccc2C)cc1OCCO [Example 294, N-[(1R)-1-[3-(2-Hydroxyethoxy)-4-methoxy-phenyl]ethyl]-2-methyl-5-(4-methylpiperazin-1-yl)benzamide] | < 5000 nM | 120.9% |  |  |
| COc1ccc([C@@H](C)NC(=O)c2cc(N3CCN(C)CC3)ccc2C)cc1OCCN [Example 295, N-[(1R)-1-[3-(2-Aminoethoxy)-4-methoxy-phenyl]ethyl]-2-methyl-5-(4-methylpiperazin-1-yl)benzamide Dihydrochloride Salt] | < 10000 nM | 107.9% |  |  |
| COc1cc([C@@H](C)NC(=O)c2cc(N3C[C@H]4C[C@@H]3CN4C)ccc2C)ccc1OCC1CC1 [Example 297, N-[(1R)-1-[4-(Cyclopropylmethoxy)-3-methoxy-phenyl]ethyl]-2-methyl-5-[(1R,4R)-5-methyl-2,5-diazabicyclo[2.2.1]heptan-2-yl]benzamide] | < 2000 nM | 61.1% |  |  |
| COc1cc([C@@H](C)NC(=O)c2cc(N3C[C@H]4CC[C@@H](C3)N4)ccc2C)ccc1OCC1CC1 [Example 298, N-[(1R)-1-[4-(Cyclopropylmethoxy)-3-methoxy-phenyl]ethyl]-5-[(1R,5S)-3,8-diazabicyclo[3.2.1]octan-3-yl]-2-methyl-benzamide] |  |  | < 2000 nM | 43.9% |
| COc1ccc([C@@H](C)NC(=O)c2cc(C3CCN(C)CC3)ccc2C)cc1Br [Example 299, N-[(1R)-1-(3-Bromo-4-methoxy-phenyl)ethyl]-2-methyl-5-(1-methyl-4-piperidyl)benzamide] | < 2000 nM | 76.2% |  |  |
| COc1cc(-c2cn(C)nc2C)cc([C@@H](C)NC(=O)c2cc(C3CCN(C)CC3)ccc2C)c1 [Example 301, N-[(1R)-1-[3-(1,3-Dimethylpyrazol-4-yl)-5-methoxy-phenyl]ethyl]-2-methyl-5-(1-methyl-4-piperidyl)benzamide] | < 2000 nM | 77.5% |  |  |
| COc1cc(-c2cnn(C)c2)cc([C@@H](C)NC(=O)c2cc(C3CCN(C)CC3)ccc2C)c1 [Example 302, N-[(1R)-1-[3-Methoxy-5-(1-methylpyrazol-4-yl)phenyl]ethyl]-2-methyl-5-(1-methyl-4-piperidyl)benzamide] | < 2000 nM | 67.1% |  |  |
